The experiment concerns serum MIF. Description: Collagen induced arthritis model, serum MIF (ELISA). It counts as in vivo, mouse. The settings on record: day 74, compared to untreated CIA samples. On the procedure:
In another experiment, fifteen DBA/1J mice, age 10–12 weeks were immunized on day 0 at the base of the tail with bovine collagen type II (CII 100 μg), emulsified in Freunds complete adjuvant (FCA; GibcoBRL). On day 21, a second dose of collagen was administered via the same route, emulsified in Freunds incomplete adjuvant. On day 28 the mice were injected subcutaneously with 100 μg of LPS (055:B5). On day 71 the mice were injected i.p. with 40 μg LPS (0111:B4). Groups and treatment protocol were the same as described as above. On day 74 blood samples were collected and cytokines were measured.

Turning to `Cn1c(=O)c([N+](=O)[O-])c(N2CCN(C(=O)c3ccco3)CC2)c2ccccc21` [compound 7e], the “serum MIF levels” value was “reduced serum MIF levels”.

The values are drawn from patent US7084141B2, “Inhibitors of macrophase migration inhibitory factor and methods for identifying the same” (Avanir Pharmaceuticals, priority 2001, dated 2006).
